Measurements taken from patent US20090304600A1 (priority 2008, published 2009).
Like-named read-outs stand apart in the source and are kept apart here.

Columns and labels:
[1] = cited from earlier work
[2] = cited from earlier work; remark: listed apart in the source
[3] = patients with normal renal function; cited from earlier work
[4] = ESRD patient, cited from earlier work

O=S([O-])([O-])=S.[Ca+2] [Calcium thiosulfate]
water solubility relative to calcium phosphate [1]: many folds more water soluble than calcium phosphate

O=S([O-])([O-])=S.[Na+].[Na+] [sodium thiosulfate]
elimination route ([2]; anuric dogs): primarily through the biliary system | half-life ([2]; anuric dogs): 3.98 h | metabolic clearance rate ([2]; dogs, during renal failure): decreased drastically | volume of distribution ([2]; dogs, during renal failure): doubled | distribution ([2]; normal and anuric mongrel dogs): distributes rapidly throughout the extracellular space | cleared renally ([2]; normal dogs): > 98% | half-life ([2]; normal dogs): 0.78 h | solubility in the dialysis solution (hemodialysis dialysate): soluble | solubility in peritoneal dialysis solutions (peritoneal dialysis solutions): soluble | serum half-life [3]: 0.25 h | solubility in water [1]: soluble in water | serum sodium thiosulfate concentration ([4]; 15 min after infusion): 110 µg/mL | serum sodium thiosulfate concentration ([4]; after a 4-h hemodialysis session): 0 µg/mL | serum sodium thiosulfate concentration ([4]; before hemodialysis (52 h after administration)): 1.2 µg/mL | calculated half life [4]: 7.97 h
